Structures can show the parent of a compound that is named as a salt. Where a SMILES comes first, the peptide text is derived from it.
Tests used:
Assay type in all cases: cell-based
COL1A1 = assay: In vitro efficacy in semi-activated LX2 cells, qPCR: COL1A1; conditions: Homo sapiens, 48 hours, Q-PCR, read-out: COL1A1 mRNA inhibition rate; for inhibition at 25 µM: LX-2, test concentration 25 μM; for inhibition at 50 µM: LX-2, 50 µM
COL3A1 = assay: In vitro efficacy in semi-activated LX2 cells, qPCR: COL3A1; conditions: Homo sapiens, 48 hours, Q-PCR, read-out: COL3A1 mRNA inhibition rate; for inhibition at 25 µM: LX-2, test concentration 25 μM; for inhibition at 50 µM: LX-2, 50 µM
Smad3 = assay: In vitro efficacy in semi-activated LX2 cells, qPCR: Smad3; conditions: Homo sapiens, 48 hours, Q-PCR, read-out: Smad3 mRNA inhibition rate
How it was run: (§1)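 Compound at 50 µM is added to adherent LX2 stellate cells and left for 48 hours before total RNA is isolated. Transcript levels are then measured by SYBR Green real-time PCR on cDNA and expressed by relative quantification.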

IL-1β = assay: In vitro efficacy in semi-activated LX2 cells, qPCR: IL-1β; conditions: Homo sapiens, 48 hours, Q-PCR, read-out: IL-1β mRNA inhibition rate; for inhibition at 25 µM: LX-2, test concentration 25 μM
COL1A2 [1] = assay: In vitro efficacy in semi-activated LX2 cells, qPCR: COL1A2; conditions: Homo sapiens, 48 hours, Q-PCR, read-out: COL1A2 mRNA inhibition rate; for inhibition at 25 µM: LX-2, test concentration 25 μM
TNF-α [2] = assay: In vitro efficacy in semi-activated LX2 cells, qPCR: TNF-α; conditions: Homo sapiens, 48 hours, Q-PCR, read-out: TNF-α mRNA inhibition rate
α-SMA [3] = assay: In vitro efficacy in semi-activated LX2 cells, qPCR: α-SMA; conditions: test concentration 25 μM, 48 hours, Q-PCR, read-out: α-SMA mRNA inhibition rate
How it was run: as §1

TNF-α [4] = assay: In vitro efficacy in semi-activated LX2 cells, qPCR: TNF-α; conditions: Homo sapiens, LX-2, 48 hours, Q-PCR, read-out: TNF-α mRNA inhibition rate
Procedure: (§2) Test compounds were added to the LX-2 cells respectively, and total RNA in the cells was extracted 48 hours later. This experiment was performed strictly in accordance with the instructions of the Total RNA Kit. The steps were as follows (note: this experiment was performed on ice throughout the entire process, and special RNase-free tips were used throughout the entire process): • 1) The 12-well cell culture plate was taken out from the incubator, the cell culture medium was discarded, the cells were washed twice with 1 mL of 1×PBS, and a negative pressure suction device was used to fully remove PBS; • 2) 350 μL of TRK Lysis Buffer mixture/well was prepared as needed (mixture preparation method: 1 mL of TRKLysis Buffer+20 μL of β-mercaptoethanol), vortexed and mixed well. 350 μL was added to each well of the 12-well cell culture plate, and allowed to stand at room temperature for 5 minutes to fully lyse the cells; • 3) 70% ethanol/well was prepared as needed, vortexed and mixed well. 350 μL was added to each well of the 12-well cell culture plate, mixed well by shaking, and transferred to the spin column (spin column+collection tube were assembled); • 4) Centrifugation was performed at 4° C., 12000 g for 60 sec. The waste liquid was discarded after centrifugation, while the spin column was kept; • 5) 500 μL of RNA Wash Buffer I was added, centrifuged at 4° C., 12000 g for 60 sec, the waste liquid was discarded after centrifugation, and the collection column was kept; • 6) 500 μL of RNA Wash Buffer II (confirmed that ethanol had been added) was added, centrifuged at 4° C., 12000 g for 60 sec, the waste liquid was discarded after centrifugation, and the collection column was kept; • 7) step 6) was repeated once again, centrifugation was performed at 4° C., 12000 g for 90 sec, the waste liquid was discarded after centrifugation, and the collection column was kept; • 8) Centrifugation was performed at 4° C., 12000 g for 120 sec to ensure that the spin column was fully dried; • 9) The dried spin column was inserted into a new 1.5 mL EP tube, and 30 μL of DEPC water was added to the membrane in the center of the spin column. It should be careful not to touch the EP tube cover in this step. It was allowed to stand at room temperature for 5 minutes to ensure that the RNA was fully dissolved in DEPC water. Centrifugation was performed at 4° C., 12000 g for 60 sec, and the EP tube was kept; • 10) NanoDrop ultra-micro-volume spectrophotometer was used to detect RNA concentration;
(§3) 5.2 Reverse transcription of RNA into cDNA: According to the instructions of PrimeScript™ RT reagent Kit (Perfect Real Time), the specific experimental steps were as follows:
(§4) 5.3 Q-PCR detection of target gene expression: According to the instructions of Power SYBR® Green PCR Master Mix, the specific operations were as follows:
(§5) After the reaction was completed, the amplification curve and dissolution curve of Q-PCR were confirmed, and the relative quantification method ([…]) was used to perform data analysis on the experimental results.
(§6) LX2 cells were passaged and plated normally. After adherent growth for 12 hours, 50 µM of the test compound was added. After 48 hours, the cells were collected, total RNA was extracted, and Q-PCR was used to detect the changes in the mRNA expression levels of liver fibrosis-related genes (ACTA2 encoding α-SMA, COL1A1 and COLIA2 encoding collagen I, COL3A1 encoding collagen III, SMAD3 encoding Smad3) and inflammation-related genes (IL1β encoding IL-1β, TNFα encoding TNFα) (for specific methods, see 5. Q-PCR detection of target gene expression as described above). α-SMA was a marker of hepatic stellate cell activation, and collagen I and collagen III were the main components of extracellular matrix deposition.

[5] = system: collagen I and collagen III; assay: Semi-activated LX2 cells, qPCR: collagen I and collagen III at the mRNA level; conditions: 48 hours, Q-PCR, Table 2
How it was run: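 LX-2 human hepatic stellate cells, adhered 12 h, were treated with 50 µM test compound for 48 h. Total RNA was extracted, and COL1A1, COL1A2 and COL3A1 mRNA were measured by SYBR Green qPCR.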

[6] = system: liver fibrosis-related genes; assay: Semi-activated LX2 cells, qPCR: liver fibrosis-related genes overall; conditions: 48 hours, Q-PCR, Table 2
Procedure: as §2, §4, §6

α-SMA [7] = assay: Semi-activated LX2 cells, Western blot: α-SMA protein; conditions: 50-400 μM, 48 hours, FIG. 2, vs 50 μM aspartic acid
FN = assay: Semi-activated LX2 cells, Western blot: FN protein; conditions: 50-400 μM, 48 hours, FIG. 3, vs 50 μM aspartic acid
COL1A2 [8] = assay: In vitro efficacy in semi-activated LX2 cells, qPCR: COL1A2; conditions: Homo sapiens, LX-2, 48 hours, Q-PCR, read-out: COL1A2 mRNA inhibition rate
Procedure: as §2, §3, §4, §5, §6

NS3TP1 = assay: Regulation of NS3TP1 in semi-activated LX2 cells, qPCR; conditions: LX-2 cells, 48 hours, Q-PCR, vs control group
Procedure: as §2, §3, §4, §5
LX2 cells were passaged and plated normally. […] After 48 hours, the cells were collected, total RNA was extracted, and the expression of NS3TP1 gene was detected using Q-PCR method.

collagen I = assay: Activated LX2 cells (TGFβ1), Western blot: Collagen I; conditions: LX2 cells stimulated with TGFβ1 (5 ng/mL), 24 hours, FIG. 4
α-SMA [9] = assay: Activated LX2 cells (TGFβ1), Western blot: α-SMA; conditions: LX2 cells stimulated with TGFβ1 (5 ng/mL), 24 hours, FIG. 4
[10] = LX-2, test concentration 12.5 μM

`CN[C@@H](CC(=O)O)C(=O)O` [Compound 3] was tested, and the inhibition at 12.5 µM (COL1A1; [10]) was 25 to 50%, the inhibition at 12.5 µM (COL3A1; [10]) was 1 to 10% and the inhibition at 12.5 µM (Smad3; [10]) was 1 to 10%. It also gave an inhibition at 12.5 µM (IL-1β; [10]) of 1 to 10%, an inhibition at 12.5 µM (COL1A2 [1]; [10]) of 1 to 10% and an inhibition at 12.5 µM (TNF-α [2]; [10]) of 1 to 10%.
Work on `C[S+]([O-])C[C@H](N)C(=O)O` (stereo partly drawn) [Compound 45] yielded an inhibition at 25 µM (COL1A1) of 1 to 10%, an inhibition at 25 µM (COL3A1) of 1 to 10% and an inhibition at 25 µM (α-SMA [3]) of 1 to 10%. For the same compound, the inhibition at 25 µM (Smad3; LX-2, test concentration 25 μM) was 1 to 10%, the inhibition at 25 µM (IL-1β) was 1 to 10% and the inhibition at 25 µM (COL1A2 [1]) was 1 to 10%. The inhibition at 25 µM (TNF-α [2]; LX-2, test concentration 25 μM) was 1 to 10%.
With `N[C@@H](CS(=O)O)C(=O)O` [Compound 46] the inhibition at 25 µM (COL1A2 [1]) was 1 to 10%.
In the case of `COC(=O)[C@H](Cc1ccccc1)NC(=O)[C@@H](N)CC(=O)O` [Compound 48] (HELM PEPTIDE1{D.F.[CO[*:1]]}$$$$V2.0), the inhibition at 50 µM (COL1A1) is reported as 25 to 50%, the inhibition at 50 µM (COL3A1) is reported as 10 to 25% and the inhibition at 50 µM (TNF-α [4]) is reported as 1 to 10%. For the same compound, the “inhibition of the expression of collagen I and collagen III at the mRNA level” value (from here on “inhibition of the expression … at the mRNA level”) [5] was “could inhibit”, the “inhibition of the mRNA expression levels of liver fibrosis-related genes (overall)” value [6] was “stronger effects” and the “inhibitory effect on α-SMA protein as compared to ASP” value (α-SMA [7]) was “stronger inhibitory effects”.
In the case of `CC(C)OC(=O)[C@@H](N)CC(=O)O` [Compound 50, 1-isopropyl L-aspartic acid ester hydrochloride], the inhibition at 50 µM (COL1A1) is reported as 25 to 50%, the inhibition at 50 µM (COL3A1) is reported as 1 to 10% and the “inhibition of the expression … at the mRNA level” value [5] is reported as “could inhibit”. For the same compound, the “inhibitory effect on FN protein expression as compared to ASP” value (FN) was “stronger inhibitory effects”.
With `CC(C)OC(=O)OCOC(=O)C[C@H](N)C(=O)O` [Compound 52, 4-(((isopropoxycarbonyl)oxy)methyl) L-aspartic acid ester hydrochloride] the inhibition at 50 µM (COL1A1) was 25 to 50%, the inhibition at 50 µM (COL1A2 [8]) was 1 to 10% and the inhibition at 50 µM (COL3A1) was 25 to 50%. For the same compound, the “inhibition of the expression … at the mRNA level” value [5] was “could inhibit”, the “inhibition of the mRNA expression levels of liver fibrosis-related genes (overall)” value [6] was “stronger effects” and the “inhibitory effect on α-SMA protein as compared to ASP” value (α-SMA [7]) was “stronger inhibitory effects”. For the same compound, the “inhibitory effect on FN protein expression as compared to ASP” value (FN) was “stronger inhibitory effects”.
With `N[C@@H](CC(=O)OCOC(=O)C[C@H](N)C(=O)O)C(=O)O` [Compound 55, (2S,2'S)-4,4′-(methylenebis (oxy))bis (2-amino-4-oxobutyric acid) hydrochloride] the inhibition at 25 µM (COL1A1) was 1 to 10%, the inhibition at 25 µM (COL3A1) was 1 to 10% and the inhibition at 25 µM (α-SMA [3]) was 1 to 10%. It also gave an inhibition at 25 µM (IL-1β) of 1 to 10% and an inhibition at 25 µM (COL1A2 [1]) of 1 to 10%.
For `COC(=O)C[C@H](N)C(=O)OCCOC(=O)[C@@H](N)CC(=O)OC` [Compound 77a, O′1,O1-(ethan-1,2-diyl)4-dimethyl (2S,2'S)-bis (2-aminosuccinate) hydrochloride], the “Up-regulation of NS3TP1” value (NS3TP1; 200 µM compound) was “C (C represented that the up-regulation was 1~20%)”, the “expression of Collagen I in the cells” value (collagen I) was “significantly decreased” and the “expression of α-SMA in the cells” value (α-SMA [9]) was “significantly decreased”.
In the case of `COC(=O)C[C@H](N)C(=O)OCCOC(=O)C[C@H](N)C(=O)OC` [Compound 78a, 4-(2-(S)-2-amino-4-methoxy-4-oxobutyryl)ethyl)1-methyl L-aspartic acid ester hydrochloride], the “Up-regulation of NS3TP1” value (NS3TP1; test concentration 12.5 μM) is reported as “C (C represented that the up-regulation was 1~20%)”, the “expression of Collagen I in the cells” value (collagen I) is reported as “significantly decreased” and the “expression of α-SMA in the cells” value (α-SMA [9]) is reported as “significantly decreased”.

Source: patent US20250025438A1, “Derivative of aspartic acid and use thereof in treatment of metabolic diseases such as hepatic fibrosis and non-alcoholic hepatitis” (SHENZHEN JINGTAI TECHNOLOGY CO., LTD., priority 2021, published 2025)
